# Legend:
# Format in all cases: cell-based, human
# [1] = system: U-2 OS cells; test: Metaphase-TIFs in cells overexpressing FANCM variants; conditions: stable overexpression
# Excerpt: (§1) (a) Schematic of FANCM domain interactions, mutations or deletions. For clarity, domains have been color coded by functional role (bottom panel). (b) Quantitation of metaphase-TIFs in U-2 OS cells stably overexpressing wild-type (FANCM+) or FANCM mutants. Scatterplot bars represent the mean±SEM. Out of 3 experiments, n≥110 metaphases scored for each mutant, *p<0.05, **p<0.005, Mann-Whitney test. (c) Quantitation of fragile telomeres in U-2 OS cells stably overexpressing wild-type (FANCM+) or FANCM mutants. Scatterplot bars represent the mean±SEM. Out of 3 experiments, n>100 metaphases scored for each mutant, *p<0.05, **p<0.005, Mann-Whitney test. (d) Representative dot blots and quantitation of C-circle assays in U-2 OS cells stably overexpressing wild-type (FANCM+) or FANCM domain mutants. C-circles were normalized to the mean of vector control. Error bars represent mean±SEM from n=3 experiments, *p<0.05, **p<0.005, Student's t-test. (e) Single molecule analysis of telomeric extension events (top panel) and length of extension events (bottom panel) in U-2 OS cells stably overexpressing wild-type (FANCM+) or FANCM domain mutants. Error bars represent mean±SEM of n≥350 fibers out of 3 experiments, *p<0.05, **p<0.005, Student's t-test.
# (§2) FIG. 23. Defects in ALT phenotype suppression are exacerbated by overexpression of a double-mutant (DM) FANCM, in which both the MM2 domain (FF>AA) and the translocase domain (K117R) of FANCM are mutated. (a) Representative dot blots and quantitation of C-circle assays in U-2 OS cells stably overexpressing wild-type (WT) or FANCM domain mutants (K117R, FF>AA; DM). C-circles were normalized to the mean of empty vector control (EV). Error bars represent mean±SEM from n=3 experiments, *p<0.05, **p<0.005, Student's t-test. (b) Quantitation of APB frequency in U-2 OS cells overexpressing wild-type (WT) or FANCM mutants. Scatterplot bars represent the mean±SEM. Out of three experiments, n=150 cells were scored for each mutant, **p<0.005, Mann-Whitney test. (c) Quantitation of metaphase-TIFs in U-2 OS cells stably overexpressing wild-type (WT) or FANCM mutants. Scatterplot bars represent the mean±SEM. Out of three experiments, n=120 metaphases scored for each mutant, *p<0.05, **p<0.005, Mann-Whitney test. All statistical comparisons are relative to EV control.
# (§3) Empty vector and wild-type FANCM (pCMV6-Myc-DDK) constructs were obtained from Origene Technologies. Wild type FANCM (SEQ ID NO: 2) and FANCM mutants (SEQ ID NOs: 19 to 28) were cloned into the pLenti-C-Myc-DDK-IRES-Neo backbone (Origene Technologies) by restriction enzyme subcloning of gene blocks synthesized by Integrated DNA Technologies (IDT). Lentivirus was produced by the Vector and Genome Engineering Facility (Children's Medical Research Institute). For stable overexpression, cells were transduced with lentivirus, allowed to recover for 24 h, and subject to G418 selection. Cells were maintained in G418 to ensure sustained overexpression.
# (§4) Indirect IF and telomere FISH were performed on both interphase nuclei and metaphase spreads. For interphase IF experiments, cells were grown on coverslips or LabTek chamber slides (Thermo Scientific). Slides were prepared as described in Sobinoff et al., 2017. Cells on coverslips were washed twice with PBS, permeabilized with KCM buffer (120 mM KCl, 20 mM NaCl, 10 mM Tris pH 7.5, 0.1% Triton), washed again with PBST and PBS, then fixed with ice-cold 4% formaldehyde PBS solution at room temperature for 10 min. […]
# [2] = system: U-2 OS cells; test: Fragile telomeres in cells overexpressing FANCM variants; conditions: stable overexpression
# Excerpt: as §1, §3
# as §4, with “min. Coverslips were blocked with antibody-dilution buffer (20 mM Tris-HCl, pH 7.5, 2% (w/v) BSA, 0.2% (v/v) fish gelatin, 150 mM NaCl, 0.1% (v/v) Triton X-100 and 0.1% (w/v) sodium azide) and 0.1 mg/ml RNaseA for 30 min at 37° C.” for “min.”
# [3] = system: U-2 OS cells; test: C-circle assay in cells overexpressing FANCM variants; conditions: stable overexpression, compared to vector control
# Excerpt: as §1, §2, §3
# C-circles were amplified with Phi29 polymerase using dATP, dTTP and dGTP overnight. Products were dot blotted onto Biodyne B membranes (Pall) and pre-hybridised in PerfectHyb Plus (Sigma) for at least 30 min. Radiolabeled telomeric C-probe was then added and blots were hybridized overnight at 37° C. (Henson et al., 2009). Blots were washed with 0.5×SSC, 0.1% SDS three times for 5 min each then exposed to phosphor screen. Imaging was performed on the Typhoon FLA 7000 system (GE Healthcare) with a PMT of 750 V.
# [4] = system: U-2 OS cells; test: APB frequency and APB telomere intensity in cells overexpressing FANCM variants; conditions: overexpression
# Excerpt: (a) Western immunoblotting of stable wild-type FANCM (FANCM+) or FANCM mutant overexpression in U-2 OS cells. […] (b) TRF analysis of U-2 OS cells overexpressing wild-type (FANCM+) or FANCM mutants. Gels were hybridized under native and denatured conditions with radiolabelled telomeric probes to detect the C-strand and G-strand. (c) Tukey boxplots of APB frequency (top panel) and mean APB telomere intensity (bottom panel) in U-2 OS cells overexpressing wild-type (FANCM+) or FANCM mutants. Out of 3 experiments, n=150 cells scored per variant, *p<0.05, **p<0.005, Mann-Whitney test.
# as §2, §3
# Indirect IF and telomere FISH were performed on both interphase nuclei and metaphase spreads. For interphase IF experiments, cells were grown on coverslips or LabTek chamber slides (Thermo Scientific). Slides were prepared as described in Sobinoff et al., 2017. Cells on coverslips were washed twice with PBS, permeabilized with KCM buffer (120 mM KCl, 20 mM NaCl, 10 mM Tris pH 7.5, 0.1% Triton), washed again with PBST and PBS, then fixed with ice-cold 4% formaldehyde PBS solution at room temperature for 10 min. Coverslips were blocked with antibody-dilution buffer (20 mM Tris-HCl, pH 7.5, 2% (w/v) BSA, 0.2% (v/v) fish gelatin, 150 mM NaCl, 0.1% (v/v) Triton X-100 and 0.1% (w/v) sodium azide) and 0.1 mg/ml RNaseA for 30 min at 37° C. Cells were incubated with primary antibodies (Supplementary Table 1) for 1 h at 37° C. or 2 h at room temperature, then incubated with 1:1,000 dilution of appropriate Alexa Fluor conjugated secondary antibodies (Thermo Scientific). Coverslips were rinsed with PBS then fixed with 4% (v/v) formaldehyde at room temperature prior to telomere FISH. Coverslips were subjected to a graded ethanol series (75% for 2 min, 85% for 2 min, and 100% for 2 min) and allowed to air-dry. […]
Substance,telomere dysfunction (metaphase-TIFs) [1],number of fragile telomeres (telomere fragility) [2],C-circle levels [3],number of APBs [4]
wild-type FANCM: wild type FANCM (SEQ ID NO: 2) stably overexpressed by lentivirus,significant decrease,significant decrease,significant decrease in C-circle generation,
"HhH: FANCM HhH domain mutant (SEQ ID NO: 28), deletion at amino acid residues 1971-2048",,,did not cause a change in C-circle levels,
DM: double mutant FANCM with both the K117R substitution and the FF>AA double substitution (SEQ ID NO:35),enhanced telomere dysfunction,,significantly greater increase in C-circles,greater increase in the number of APBs
"ERCC4: FANCM ERCC4 domain mutant (SEQ ID NO: 27), deletion at amino acid residues 1815-1922",,,did not cause a change in C-circle levels,
MID: FANCM MID domain mutant (SEQ ID NO: 21) substituted at V749G/H751G,significantly increased,significantly increased,,
